Where “and” joins values, the source holds several entries; their conditions need not be identical. Identical values can stand only once. Like-named read-outs stand apart in the source and are kept apart here.
Key:
[1] = test system: γ3 GABAA receptors; details: 1999, cited from earlier work; for binding affinity with γ3 compared with γ2: competitive binding using Ro15-4513, ref Dämgen and Lüddens
[2] = test system: α1β2γ3 receptors; parameters: method as in Davies et al., 2000; details: ref Davies et al., 2000; cited from earlier work
[3] = target: T1, human α1β2γ2 GABAA receptors (Homo sapiens, UniProt P14867+P18507+P47870); assay: cell-based; details: for EC50: EC50, γ2 (α1β2γ2), co-applied with GABA EC10; for Emax: γ2 (α1β2γ2), percent of current through GABA EC10, Hill fit
T1 sequence (P18507 40-475, one chain of several): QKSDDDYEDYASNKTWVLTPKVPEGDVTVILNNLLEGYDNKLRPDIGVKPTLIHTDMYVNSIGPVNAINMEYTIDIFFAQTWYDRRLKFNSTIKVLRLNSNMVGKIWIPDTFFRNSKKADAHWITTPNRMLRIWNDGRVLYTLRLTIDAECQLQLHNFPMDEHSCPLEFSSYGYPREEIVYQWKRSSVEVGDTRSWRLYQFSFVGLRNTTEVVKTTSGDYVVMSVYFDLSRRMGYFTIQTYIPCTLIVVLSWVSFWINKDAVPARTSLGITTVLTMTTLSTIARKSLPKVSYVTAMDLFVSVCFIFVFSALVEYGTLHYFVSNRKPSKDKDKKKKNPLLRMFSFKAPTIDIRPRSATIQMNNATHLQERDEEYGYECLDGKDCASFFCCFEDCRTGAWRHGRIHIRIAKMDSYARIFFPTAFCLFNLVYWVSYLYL
Text: (§1) To ensure homogenous receptor populations and subunit orientation, we used concatenated receptors expressed in X. laevis oocytes. Concatenated pentameric constructs were created using the subunits γx-β2-α1-β2-α1 (where x = 1, 2, or 3). […] Briefly, natural restriction sites BamHI, HindIII, and KpnI restriction sites in the γ1, 2, 3, β2, or α1 subunits were removed through silent mutations using site-directed mutagenesis. […] Inserted linker lengths are as follows γx-13a-β2-27a-α1-18a-β2-27a-α1.
(§2) The collection and preparation of oocytes were done as previously described ([Ahring et al., 2016]). […] Oocytes were prepared by slicing lobes into small pieces and defolliculated through collagenase A treatment. Stage V and VI oocytes were injected with around 50 nL of 0.5 ng/nL RNA for each concatenated construct or α1/β2 subunits in a 1:1 ratio and incubated for 3–4 days at 18°C in modified Barth’s solution (96 mM NaCl, 2.0 mM KCl, 1 mM MgCl2, 1.8 mM CaCl2, 5 mM HEPES, 2.5 mM sodium pyruvate, 0.5 mM theophylline, and 100 μg/mL gentamicin; pH 7.4).
(§3) This technique was performed as previously described ([Ahring et al., 2016], [2018]; [Liao et al., 2019]). Briefly, oocytes sit in a custom-built chamber and continuously perfused with a saline solution, ‘ND96’ (96 mM NaCl, 2 mM KCl, 1 mM MgCl2, 1.8 mM CaCl2, and 10 mM HEPES; pH 7.4). Glass electrode pipettes were filled with 3 M KCl, with resistances ranging from 0.4 to 2 MΩ. Oocytes were clamped to −60 mV using an Axon GeneClamp 500B amplifier (Molecular Devices). Currents were filtered at 20 Hz with a four-pole low pass Bessel filter (Axon GeneClamp 500 B) and digitized by a Digidata 1440A (Molecular Devices). Sampling was taken at 200 Hz and analyzed using pClamp 10.2 suite (Molecular Devices).
(§4) Each recording day, a fresh stock was used to prepare dilutions. The maximal concentration of DMSO in final drug ND96 solutions was <0.1%.
(§5) The drug modulation experiments were done as follows.
(§6) The final dataset was from a minimum of four experiments and a minimum of two different X. laevis donors. Raw traces were analyzed using pClamp 10.2. Episodic traces for each application were overlaid and the baseline was subtracted. Peak current amplitude was quantified by measuring maximum inward current for each response. Peak current amplitudes (I) were fitted to the Hill equation and normalized to the maximal fitted response (Imax). […] The Emax response and EC50 values were calculated by using non-linear regression to fit the data to the Hill equation in a monophasic model with three variables (top, bottom, EC50) using GraphPad Prism 8. Efficacy at infinitely low compound concentration was set to 0, and the slope was constrained to 1. Means are reported ± one SD.

[4] = target: T2, human α1β2γ1 GABAA receptors (Homo sapiens, UniProt P14867+P47870+Q8N1C3); details: γ1 (α1β2γ1); for Modulation at 10 μM: 10 μM co-applied with GABA EC10, percentage potentiation of GABA EC10; for EC50: co-applied with GABA EC10; for Log(EC50): logarithm of EC50, mean ± SD; for Emax (%): percent of current through GABA EC10, Hill fit, 0.1 nM-10 μM
T2 sequence (Q8N1C3 36-465): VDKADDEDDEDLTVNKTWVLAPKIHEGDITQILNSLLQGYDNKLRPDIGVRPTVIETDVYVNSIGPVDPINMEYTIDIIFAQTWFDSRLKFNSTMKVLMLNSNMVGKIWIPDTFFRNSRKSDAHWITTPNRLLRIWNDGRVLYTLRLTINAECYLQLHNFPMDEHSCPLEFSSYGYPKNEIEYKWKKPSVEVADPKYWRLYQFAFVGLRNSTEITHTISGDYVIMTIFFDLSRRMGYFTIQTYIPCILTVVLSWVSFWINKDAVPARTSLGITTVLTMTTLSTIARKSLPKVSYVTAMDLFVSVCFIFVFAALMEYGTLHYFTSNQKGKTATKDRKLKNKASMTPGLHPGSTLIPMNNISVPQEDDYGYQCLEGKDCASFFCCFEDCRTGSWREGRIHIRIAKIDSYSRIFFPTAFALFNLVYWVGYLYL
T2 sequence (P47870 25-512 limits assumed): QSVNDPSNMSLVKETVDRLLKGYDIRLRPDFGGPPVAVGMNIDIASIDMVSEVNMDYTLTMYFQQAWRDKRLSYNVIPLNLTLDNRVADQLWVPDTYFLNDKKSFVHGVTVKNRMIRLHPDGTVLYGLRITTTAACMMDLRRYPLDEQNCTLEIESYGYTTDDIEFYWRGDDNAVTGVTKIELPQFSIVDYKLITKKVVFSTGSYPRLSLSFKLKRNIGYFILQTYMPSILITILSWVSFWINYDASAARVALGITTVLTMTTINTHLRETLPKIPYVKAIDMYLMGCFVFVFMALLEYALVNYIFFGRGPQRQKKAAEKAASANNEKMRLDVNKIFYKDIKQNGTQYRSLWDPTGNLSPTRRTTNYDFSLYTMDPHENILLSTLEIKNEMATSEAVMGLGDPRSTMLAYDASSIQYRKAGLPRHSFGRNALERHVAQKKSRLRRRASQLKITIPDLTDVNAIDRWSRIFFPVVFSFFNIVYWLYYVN
T2 sequence (P14867 28-456): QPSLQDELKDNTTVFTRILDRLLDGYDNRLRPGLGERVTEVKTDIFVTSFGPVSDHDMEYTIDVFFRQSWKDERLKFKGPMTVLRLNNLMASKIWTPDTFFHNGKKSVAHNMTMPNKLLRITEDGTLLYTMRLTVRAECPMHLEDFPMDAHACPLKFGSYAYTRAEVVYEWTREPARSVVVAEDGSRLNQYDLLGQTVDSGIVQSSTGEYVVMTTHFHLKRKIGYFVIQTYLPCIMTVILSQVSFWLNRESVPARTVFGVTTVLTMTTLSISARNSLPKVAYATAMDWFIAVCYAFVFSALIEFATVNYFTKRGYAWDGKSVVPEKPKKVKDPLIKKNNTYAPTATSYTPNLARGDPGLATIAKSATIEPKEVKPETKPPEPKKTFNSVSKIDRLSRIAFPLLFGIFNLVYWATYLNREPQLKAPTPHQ
Text: as §1, §2, §3, §4, §5, §6

[5] = target: T1, human α1β2γ2 GABAA receptors; details: γ2 (α1β2γ2); for Modulation at 10 μM: 10 μM co-applied with GABA EC10, percentage potentiation of GABA EC10; for Emax (%): percent of current through GABA EC10, Hill fit
Text: as §1, §2, §3, §4, §5, §6

[6] = target: T3, human α1β2γ3 GABAA receptors (Homo sapiens, UniProt P14867+P47870+Q99928); details: for Modulation at 10 μM: 10 μM co-applied with GABA EC10, percentage potentiation of GABA EC10; for Emax (%): percent of current through GABA EC10, Hill fit; for fold greater potency at γ3 receptors compared with γ2: EC50 α1β2γ2 vs α1β2γ3
T3 sequence (Q99928 18-467): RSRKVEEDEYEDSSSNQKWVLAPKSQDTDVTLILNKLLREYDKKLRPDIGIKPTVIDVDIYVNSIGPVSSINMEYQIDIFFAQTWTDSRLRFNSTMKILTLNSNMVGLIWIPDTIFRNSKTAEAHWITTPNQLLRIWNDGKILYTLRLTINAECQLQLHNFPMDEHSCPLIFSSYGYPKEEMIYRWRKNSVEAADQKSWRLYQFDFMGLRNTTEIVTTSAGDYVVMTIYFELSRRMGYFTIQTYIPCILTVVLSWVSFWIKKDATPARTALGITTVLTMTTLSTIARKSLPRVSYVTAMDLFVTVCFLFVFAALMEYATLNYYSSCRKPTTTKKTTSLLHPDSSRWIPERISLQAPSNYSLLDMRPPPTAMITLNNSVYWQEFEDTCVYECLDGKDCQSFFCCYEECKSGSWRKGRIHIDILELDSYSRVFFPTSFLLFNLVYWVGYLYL
T3 sequence (P47870 25-512 limits assumed): T2 sequence (P47870 25-512 limits assumed)
T3 sequence (P14867 28-456): T2 sequence (P14867 28-456)
Text: as §1, §2, §3, §4, §5, §6

[7] = target: recombinant α1β2γ3 GABAA receptors; parameters: method as in Lippa et al., 2005; details: ref Lippa et al., 2005, cited from earlier work
[8] = target: T3, human α1β2γ3 GABAA receptors; assay: cell-based; details: for EC50: EC50, γ3 (α1β2γ3), co-applied with GABA EC10
Text: as §1, §2, §3, §4, §5, §6

[9] = test system: α2βγ1 receptors; parameters: method as in Wafford et al., 1993; Mckernan et al., 1995; details: α2βγ1 in X. laevis oocytes, ref Wafford et al., 1993, Mckernan et al., 1995, cited from earlier work
[10] = test system: α1βγ1 receptors; parameters: method as in Khom et al., 2006; details: α1βγ1 in X. laevis oocytes, ref Khom et al., 2006, cited from earlier work
[11] = target: α1βγ1 receptors; details: HEK293 cells expressing α1βγ1, cited from earlier work
[12] = test system: γ1-containing receptors; parameters: method as in Benke et al., 1996; details: ref Benke et al., 1996; cited from earlier work
[13] = target: T1, human α1β2γ2 GABAA receptors; assay: GABA concentration-response, concatenated α1β2γ2 receptors in oocytes; assay type: cell-based; parameters: expressed in transfected cells; host or cells: Xenopus laevis oocytes injected with cRNA of the concatenated construct; details: γ2
Text: (§7) To ensure homogenous receptor populations and subunit orientation, we used concatenated receptors expressed in X. laevis oocytes. Concatenated pentameric constructs were created using the subunits γx-β2-α1-β2-α1 (where x = 1, 2, or 3).
(§8) The collection and preparation of oocytes were done as previously described ([Ahring et al., 2016]). Briefly, ovarian lobes were removed from anesthetized adult X. laevis following protocol approval by the Animal Ethics Committee of The University of Sydney (AEC No. 2016/970) in accordance with the National Health and Medical Research Council of Australia code for the care and use of animals. […]
(§9) This technique was performed as previously described ([Ahring et al., 2016], [2018]; [Liao et al., 2019]). […] Sampling was taken at 200 Hz and analyzed using pClamp 10.2 suite (Molecular Devices).
(§10) Applications lasted for 30 s and were followed by 2–5 min of washout. EC50 and EC10 were calculated from this curve.
(§11) The final dataset was from a minimum of four experiments and a minimum of two different X. laevis donors. Raw traces were analyzed using pClamp 10.2. […] Peak current amplitude was quantified by measuring maximum inward current for each response. […] The Emax response and EC50 values were calculated by using non-linear regression to fit the data to the Hill equation in a monophasic model with three variables (top, bottom, EC50) using GraphPad Prism 8. […]

[14] = target: T2, human α1β2γ1 GABAA receptors; details: γ1; GABA concentration-response
Text: as §7, §8, §9, §10, §11

[15] = test system: α2β2γ3 receptor; assay: Literature: efficacy and potency of zaleplon at α2β2γ3 receptor; assay type: cell-based; details: literature α2β2γ3 EC50 vs this paper's α1β2γ3 EC50
[16] = target: α2β2γ3 receptor; details: earlier study, no reference given; cited from earlier work
[17] = target: T4, human binary α1β2 GABAA receptors (Homo sapiens, UniProt P14867+P47870); details: 10 μM co-applied with GABA EC10, percentage potentiation of GABA EC10
T4 sequence (P14867 28-456): T2 sequence (P14867 28-456)
T4 sequence (P47870 25-512 limits assumed): T2 sequence (P47870 25-512 limits assumed)
Experimental: as §2
This technique was performed as previously described ([Ahring et al., 2016], [2018]; [Liao et al., 2019]). Briefly, oocytes sit in a custom-built chamber and continuously perfused with a saline solution, ‘ND96’ (96 mM NaCl, 2 mM KCl, 1 mM MgCl2, 1.8 mM CaCl2, and 10 mM HEPES; pH 7.4). […] Sampling was taken at 200 Hz and analyzed using pClamp 10.2 suite (Molecular Devices). […]
as §11

Row | SMILES | EC50 [3] | Modulation at 10 μM [4] [%] | EC50 [4] | Log(EC50) [4] | Emax (%) [4] | Modulation at 10 μM [5] [%] | Modulation at 10 μM ([6]; γ3 (α1β2γ3)) [%] | Emax [3] [%] | Emax [8] [%] | EC50 [8] | other results
1 | CN1CCN(C(=O)OC2c3nccnc3C(=O)N2c2ccc(Cl)cn2)CC1 (stereo not drawn) [zopiclone] | – | – | – | – | – | – | – | – | – | – | binding affinity with γ3 compared with γ2 [1]: marginal reduction in binding affinity; efficacy and potency at α1β2γ3 compared with α1β2γ2 [2]: comparable efficacy and potency
2 | CCCN(CCC)C(=O)Cc1c(-c2ccc(Cl)cc2)nc2ccc(Cl)cn12 [Alpidem, alpidem] | 0.5 µM and 0.502 µM | 40 | No fit | No fit | No fit | 542 ± 176 | 126 ± 16 | – | – | – | Emax (%) [5]: 512 ± 80%; Emax (%) ([5]; listed as alpidem): 475–550%; EC50 ([6]; γ3 (α1β2γ3), co-applied with GABA EC10): No fit; Log(EC50) ([6]; γ3 (α1β2γ3), logarithm of EC50, mean ± SD): No fit; Emax (%) ([6]; γ3 (α1β2γ3)): No fit
3 | CN1C(=O)CN=C(c2ccccc2)c2cc(Cl)ccc21 [Diazepam, diazepam] | – | 43 ± 6 | – | – | No fit | 272 ± 46 | 156 ± 35 | 284 ± 23 | 168 ± 24 | – | Modulation at 10 μM ([4]; listed as diazepam): 40%; EC50 ([7]; recombinant α1β2γ3): 1.95 µM; Emax α1β2γ2 vs. α1β2γ3 [7]: no reduction in Emax
4 | Cc1ccc(-c2nc3ccc(C)cn3c2CC(=O)N(C)C)cc1 [Zolpidem, zolpidem] | – | 15 ± 6 | – | – | No fit | 484 ± 124 | 101 ± 37 | 475 to 550 | – | – | maximum efficacy [9]: ≤ 20%; maximum efficacy ([9]; listed as zolpidem): below 20%; maximum efficacy [10]: ≤ 20%; maximum efficacy ([10]; listed as zolpidem): below 20%; binding to the classical γ3 receptor benzodiazepine site ([1]; competition with flunitrazepam or Ro-154513, ref Herb et al., 1992, Lüddens et al., 1994, Tögel et al., Hadingham et al., 1995, Sieghart, Dämgen and Lüddens): no binding; Modulation at 10 μM ([4]; listed as zolpidem): 15%; EC50 ([11]; ref Esmaeili et al., 2009): ~0.2 µM; potentiation ([11]; ref Puia et al., 1991): 50–75%; binding [12]: no binding; Emax (%) [5]: 487 ± 66%; Emax (%) ([6]; γ3 (α1β2γ3)): No fit
5 | CN1CCN(C(=O)O[C@H]2c3nccnc3C(=O)N2c2ccc(Cl)cn2)CC1 [Eszopiclone, eszopiclone] | 0.301 µM | 18 ± 19 | No fit | No fit | No fit | 349 ± 70 | 199 ± 26 | 356 ± 37 | 207 ± 20 | 0.554 µM | Modulation at 10 μM ([4]; listed as eszopiclone): 20%; fold reduction in Emax when γ3 replaced γ2 ([6]; Emax α1β2γ2 vs α1β2γ3): 1.5 fold
6 | NCCCC(=O)O [GABA, γ-Aminobutyric-acid] | – | – | – | – | – | – | – | – | – | – | Hill slope [13]: 1.19 ± 0.55; Hill slope [14]: 1.22 ± 0.32
7 | CC(=O)N(C)c1cccc(-c2ccnc3c(C(=O)c4cccs4)cnn23)c1 [Indiplon, indiplon] | 0.01 µM and 0.0131 µM | 22 ± 7 | No fit | No fit | No fit | 238 ± 31 | 249 ± 14 | 231 ± 18 | 263 ± 18 | 0.045 µM and 0.0478 µM | fold greater potency for γ2 vs. γ3 (fold reduction in potency when γ3 replaces γ2) ([6]; EC50 α1β2γ3 vs α1β2γ2): ~4 fold
8 | CCN(C(C)=O)c1cccc(-c2ccnc3c(C#N)cnn23)c1 [Zaleplon, zaleplon] | 0.203 µM | 126 ± 3 | No fit | No fit | No fit | 305 ± 59 | 262 ± 53 | 307 ± 34 | 277 ± 26 | 0.056 µM | fold less potency at α2β2γ3 than seen on α1β2γ3 [15]: 10 fold; binding affinity with γ3 compared with γ2 [1]: eightfold higher affinity; Modulation at 10 μM ([4]; listed as zaleplon): 125%; EC50 [16]: ~0.5 µM; Modulation at 10 μM, (I-Ic)/Ic [17]: 25%; fold greater potency at γ3 receptors compared with γ2 [6]: ~4 fold; fold greater potency at γ3 receptors compared with γ2 ([6]; listed as zaleplon): four-fold increase in potency

From paper PMC7710685 (Frontiers in Neuroscience, 2020)
